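96-well plates; 48 h exposure; 5 concentrations. Endpoints by linear interpolation between flanking doses. Not reached: highest tested concentration assigned. TGI marks complete inhibition of growth.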
Legend:
Assay in all cases: growth of human tumour cells (NCI), 48 h
IGROV1 ovarian = tested on: IGROV1 ovarian
NCI-H460 lung = tested on: NCI-H460 lung
NCI-H23 lung = tested on: NCI-H23 lung
BT-549 breast = tested on: BT-549 breast
EKVX NSCLC = tested on: EKVX NSCLC
TK-10 renal = tested on: TK-10 renal
MCF7 breast = tested on: MCF7 breast
SK-MEL-5 melanoma = tested on: SK-MEL-5 melanoma
A549 NSCLC = tested on: A549 NSCLC
NCI-H522 lung = tested on: NCI-H522 lung
HCT-15 colon = tested on: HCT-15 colon
RPMI-8226 leukemia = tested on: RPMI-8226 leukemia
HS 578T breast = tested on: HS 578T breast
SK-MEL-2 melanoma = tested on: SK-MEL-2 melanoma
HT29 colon = tested on: HT29 colon
MDA-MB-231 breast = tested on: MDA-MB-231 breast
UACC-257 melanoma = tested on: UACC-257 melanoma
ACHN renal = tested on: ACHN renal
MOLT-4 leukemia = tested on: MOLT-4 leukemia
SNB-19 CNS = tested on: SNB-19 CNS
RXF 393 renal = tested on: RXF 393 renal
OVCAR-5 ovarian = tested on: OVCAR-5 ovarian
T-47D breast = tested on: T-47D breast
SK-OV-3 ovarian = tested on: SK-OV-3 ovarian
K-562 leukemia = tested on: K-562 leukemia
M14 melanoma = tested on: M14 melanoma
786-0 renal = tested on: 786-0 renal
HOP-62 NSCLC = tested on: HOP-62 NSCLC
UACC-62 melanoma = tested on: UACC-62 melanoma
HL-60(TB) leukemia = tested on: HL-60(TB) leukemia
CCRF-CEM leukemia = tested on: CCRF-CEM leukemia
OVCAR-3 ovarian = tested on: OVCAR-3 ovarian
DU-145 prostate = tested on: DU-145 prostate
NCI/ADR-RES ovarian = tested on: NCI/ADR-RES ovarian
SF-268 CNS = tested on: SF-268 CNS
LOX IMVI melanoma = tested on: LOX IMVI melanoma
MDA-N = tested on: MDA-N
SF-539 CNS = tested on: SF-539 CNS
SN12C renal = tested on: SN12C renal
NCI-H226 lung = tested on: NCI-H226 lung
HCT-116 colon = tested on: HCT-116 colon
CAKI-1 renal = tested on: CAKI-1 renal
A498 renal = tested on: A498 renal
U251 CNS = tested on: U251 CNS
HOP-92 NSCLC = tested on: HOP-92 NSCLC
HCC-2998 colon = tested on: HCC-2998 colon
COLO 205 colon = tested on: COLO 205 colon
OVCAR-8 ovarian = tested on: OVCAR-8 ovarian
SF-295 CNS = tested on: SF-295 CNS
KM12 colon = tested on: KM12 colon
OVCAR-4 ovarian = tested on: OVCAR-4 ovarian
SW-620 colon = tested on: SW-620 colon
UO-31 renal = tested on: UO-31 renal
MDA-MB-435 = tested on: MDA-MB-435
PC-3 prostate = tested on: PC-3 prostate

Measured: TGI

Cc1ccc(Nc2nc(C)c(C(=O)CC(=O)C(=O)Nc3c(C)cccc3C(C)(C)C)s2)cc1
> 100 µM: all assays above
